Earlier results, collected in PMC7927942 (Journal of chemical information and modeling, 2020).

Target: wild-type JAK2 JH2 (Homo sapiens, UniProt O60674)
Details: benchmark ligand from high-throughput screen

Chain of wild-type JAK2 JH2 (O60674 545-809 limits assumed): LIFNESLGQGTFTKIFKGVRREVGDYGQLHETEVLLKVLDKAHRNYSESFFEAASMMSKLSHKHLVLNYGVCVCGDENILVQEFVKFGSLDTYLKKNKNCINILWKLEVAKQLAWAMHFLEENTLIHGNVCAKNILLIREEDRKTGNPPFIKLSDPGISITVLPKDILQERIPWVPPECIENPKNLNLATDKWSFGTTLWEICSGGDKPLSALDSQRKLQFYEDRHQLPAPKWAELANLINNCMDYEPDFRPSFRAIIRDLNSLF

- % binding at 50 μM: 9%
SMILES: O=C(Nc1nc2cccc(-c3ccc(CN4CCS(=O)(=O)CC4)cc3)n2n1)C1CC1 [filgotinib]
